Results taken from US8222278B2, “Treatment of attention-deficit/hyperactivity disorder” (Abbott Laboratories, priority 2008, dated 2012).

System: adults with ADHD
Test: Study A: treatment-emergent adverse events (safety dataset)
Description: During each visit, blood pressure, heart rate, weight, medication accountability and tolerability, and adverse effects were assessed.
The safety dataset consisted of all subjects who took at least one dose of study drug. The reasons for discontinuation and the treatment-emergent adverse events were summarized by the treatment under which the discontinuation or event was reported.
Treatment-emergent adverse events were those that began or worsened following the first dose of study drug in Period 1. Adverse event monitoring was conducted at each study visit and until 30 days following discontinuation of study drug. Other routine safety assessments included vital signs, electrocardiograms, physical examinations, brief neurological examinations and laboratory tests.

Clc1cc(N2C[C@@H]3CN[C@@H]3C2)cnc1Cl [ABT-894, 3-(5,6-Dichloro-pyridin-3-yl)-1S,5S-3,6-diazabicyclo[3.2.0]heptane]
Any Adverse Event, % of subjects (ABT-894 1 mg QD, N = 46): (69.6) % | Any Adverse Event, number of subjects (ABT-894 1 mg QD, N = 46): 32 subjects | Decreased appetite, % of subjects (ABT-894 1 mg QD, N = 46): (0) % | Decreased appetite, number of subjects (ABT-894 1 mg QD, N = 46): 0 subjects | Diarrhea, % of subjects (ABT-894 1 mg QD, N = 46): (0) % | Diarrhea, number of subjects (ABT-894 1 mg QD, N = 46): 0 subjects | Dizziness, % of subjects (ABT-894 1 mg QD, N = 46): (4.3) % | Dizziness, number of subjects (ABT-894 1 mg QD, N = 46): 2 subjects | Dry mouth, % of subjects (ABT-894 1 mg QD, N = 46): (4.3) % | Dry mouth, number of subjects (ABT-894 1 mg QD, N = 46): 2 subjects | Fatigue, % of subjects (ABT-894 1 mg QD, N = 46): (4.3) % | Fatigue, number of subjects (ABT-894 1 mg QD, N = 46): 2 subjects | Feeling hot and cold, % of subjects (ABT-894 1 mg QD, N = 46): (0) % | Feeling hot and cold, number of subjects (ABT-894 1 mg QD, N = 46): 0 subjects | Feeling jittery, % of subjects (ABT-894 1 mg QD, N = 46): (0) % | Feeling jittery, number of subjects (ABT-894 1 mg QD, N = 46): 0 subjects | Headache, % of subjects (ABT-894 1 mg QD, N = 46): (8.7) % | Headache, number of subjects (ABT-894 1 mg QD, N = 46): 4 subjects | Lethargy, % of subjects (ABT-894 1 mg QD, N = 46): (0) % | Lethargy, number of subjects (ABT-894 1 mg QD, N = 46): 0 subjects | Muscle Strain, % of subjects (ABT-894 1 mg QD, N = 46): (6.5) % | Muscle Strain, number of subjects (ABT-894 1 mg QD, N = 46): 3 subjects | Nasal congestion, % of subjects (ABT-894 1 mg QD, N = 46): (0) % | Nasal congestion, number of subjects (ABT-894 1 mg QD, N = 46): 0 subjects | Nausea, % of subjects (ABT-894 1 mg QD, N = 46): (4.3) % | Nausea, number of subjects (ABT-894 1 mg QD, N = 46): 2 subjects | Parathesia, % of subjects (ABT-894 1 mg QD, N = 46): (0) % | Parathesia, number of subjects (ABT-894 1 mg QD, N = 46): 0 subjects | Sleep disturbances, % of subjects (ABT-894 1 mg QD, N = 46): (4.3) % | Sleep disturbances, number of subjects (ABT-894 1 mg QD, N = 46): 2 subjects | Somnolence, % of subjects (ABT-894 1 mg QD, N = 46): (13.0) % | Somnolence, number of subjects (ABT-894 1 mg QD, N = 46): 6 subjects | Upper RTI, % of subjects (ABT-894 1 mg QD, N = 46): (2.2) % | Upper RTI, number of subjects (ABT-894 1 mg QD, N = 46): 1 subjects | Vomiting, % of subjects (ABT-894 1 mg QD, N = 46): (0) % | Vomiting, number of subjects (ABT-894 1 mg QD, N = 46): 0 subjects | Any Adverse Event, % of subjects (ABT-894 2 mg QD, N = 42): (61.9) % | Any Adverse Event, number of subjects (ABT-894 2 mg QD, N = 42): 26 subjects | Decreased appetite, % of subjects (ABT-894 2 mg QD, N = 42): (0) % | Decreased appetite, number of subjects (ABT-894 2 mg QD, N = 42): 0 subjects | Diarrhea, % of subjects (ABT-894 2 mg QD, N = 42): (4.8) % | Diarrhea, number of subjects (ABT-894 2 mg QD, N = 42): 2 subjects | Dizziness, % of subjects (ABT-894 2 mg QD, N = 42): (9.5) % | Dizziness, number of subjects (ABT-894 2 mg QD, N = 42): 4 subjects | Dry mouth, % of subjects (ABT-894 2 mg QD, N = 42): (0) % | Dry mouth, number of subjects (ABT-894 2 mg QD, N = 42): 0 subjects | Fatigue, % of subjects (ABT-894 2 mg QD, N = 42): (2.4) % | Fatigue, number of subjects (ABT-894 2 mg QD, N = 42): 1 subjects | Feeling hot and cold, % of subjects (ABT-894 2 mg QD, N = 42): (0) % | Feeling hot and cold, number of subjects (ABT-894 2 mg QD, N = 42): 0 subjects | Feeling jittery, % of subjects (ABT-894 2 mg QD, N = 42): (0) % | Feeling jittery, number of subjects (ABT-894 2 mg QD, N = 42): 0 subjects | Headache, % of subjects (ABT-894 2 mg QD, N = 42): (11.9) % | Headache, number of subjects (ABT-894 2 mg QD, N = 42): 5 subjects | Lethargy, % of subjects (ABT-894 2 mg QD, N = 42): (0) % | Lethargy, number of subjects (ABT-894 2 mg QD, N = 42): 0 subjects | Muscle Strain, % of subjects (ABT-894 2 mg QD, N = 42): (0) % | Muscle Strain, number of subjects (ABT-894 2 mg QD, N = 42): 0 subjects | Nasal congestion, % of subjects (ABT-894 2 mg QD, N = 42): (0) % | Nasal congestion, number of subjects (ABT-894 2 mg QD, N = 42): 0 subjects | Nausea, % of subjects (ABT-894 2 mg QD, N = 42): (14.3) % | Nausea, number of subjects (ABT-894 2 mg QD, N = 42): 6 subjects | Parathesia, % of subjects (ABT-894 2 mg QD, N = 42): (0) % | Parathesia, number of subjects (ABT-894 2 mg QD, N = 42): 0 subjects | Sleep disturbances, % of subjects (ABT-894 2 mg QD, N = 42): (14.3) % | Sleep disturbances, number of subjects (ABT-894 2 mg QD, N = 42): 6 subjects | Somnolence, % of subjects (ABT-894 2 mg QD, N = 42): (0) % | Somnolence, number of subjects (ABT-894 2 mg QD, N = 42): 0 subjects | Upper RTI, % of subjects (ABT-894 2 mg QD, N = 42): (7.1) % | Upper RTI, number of subjects (ABT-894 2 mg QD, N = 42): 3 subjects | Vomiting, % of subjects (ABT-894 2 mg QD, N = 42): (2.4) % | Vomiting, number of subjects (ABT-894 2 mg QD, N = 42): 1 subjects | Any Adverse Event, % of subjects (ABT-894 4 mg BID, N = 46): (54.3) % | Any Adverse Event, number of subjects (ABT-894 4 mg BID, N = 46): 25 subjects | Decreased appetite, % of subjects (ABT-894 4 mg BID, N = 46): (0) % | Decreased appetite, number of subjects (ABT-894 4 mg BID, N = 46): 0 subjects | Diarrhea, % of subjects (ABT-894 4 mg BID, N = 46): (2.2) % | Diarrhea, number of subjects (ABT-894 4 mg BID, N = 46): 1 subjects | Dizziness, % of subjects (ABT-894 4 mg BID, N = 46): (2.2) % | Dizziness, number of subjects (ABT-894 4 mg BID, N = 46): 1 subjects | Dry mouth, % of subjects (ABT-894 4 mg BID, N = 46): (2.2) % | Dry mouth, number of subjects (ABT-894 4 mg BID, N = 46): 1 subjects | Fatigue, % of subjects (ABT-894 4 mg BID, N = 46): (8.7) % | Fatigue, number of subjects (ABT-894 4 mg BID, N = 46): 4 subjects | Feeling hot and cold, % of subjects (ABT-894 4 mg BID, N = 46): (0) % | Feeling hot and cold, number of subjects (ABT-894 4 mg BID, N = 46): 0 subjects | Feeling jittery, % of subjects (ABT-894 4 mg BID, N = 46): (0) % | Feeling jittery, number of subjects (ABT-894 4 mg BID, N = 46): 0 subjects | Headache, % of subjects (ABT-894 4 mg BID, N = 46): (8.7) %
